Legend:
[1] = tested on: GISTs with KIT exon 11 primary mutations; settings: cited from earlier work
[2] = tested on: advanced gastrointestinal stromal tumor (GIST); assay: Multicenter, global, randomized, open-label, phase 3 study of ripretinib versus sunitinib with baseline ctDNA analysis (Examples 1 and 5); assay type: in vivo, human; settings: for forest plot of PFS by KIT exon 11 mutational subgroups from baseline ctDNA: FIG. 10; for forest plot of OS by KIT exon 11 mutational subgroups from baseline ctDNA / forest plot of OS by KIT mutational status from baseline ctDNA: Interim Analysis 2; for forest plot of OS by KIT exon 11 mutational subgroups from baseline ctDNA: FIG. 14; for forest plot of ORR by KIT exon 11 mutational subgroups from baseline ctDNA: FIG. 12; for forest plot of OS by KIT mutational status from baseline ctDNA: FIG. 13; for median PFS by IRR: KIT mutations at exon 17/18, excluding KIT exons 9, 13, and/or 14, FIG. 4; for forest plot of PFS by KIT mutational status from baseline ctDNA: FIG. 9; for Median Progression-Free Survival (mPFS): patients with mutations in KIT exon 11 and 17 or 18 only (ctDNA; excluding exons 9, 13, 14), by IRR, ripretinib 150 mg QD or sunitinib 50 mg QD; for forest plot of ORR by KIT mutational status from baseline ctDNA: FIG. 11; for OS HR, ripretinib versus sunitinib (Cox model) / PFS HR, ripretinib versus sunitinib (Cox model): sex, and race
Procedure: This study is a multicenter, global, randomized, open-label, phase 3 study which enrolled adult patients with advanced gastrointestinal stromal tumor (GIST) who progressed on or had intolerance to imatinib. Randomization was 1:1 to ripretinib 150 mg once daily (QD) or sunitinib 50 mg once daily (QD) (4 weeks on/2 weeks off). Baseline peripheral whole blood was analyzed by Guardant360, a 74-gene circulating tumor DNA (ctDNA) next-generation sequencing (NGS)-based assay.
Of the 453 patients in the overall intent-to-treat population (ITT), baseline ctDNA analysis was performed in 362 patients for whom evaluable samples were available. ctDNA was detected in 280 samples and KIT mutations were detected in 213 patients. Primary mutations in KIT were detected in exon 11 in 157 patients and in exon 9 in 36 patients. Common resistance mutations in KIT were in exons 17/18 in 89 patients and exons 13/14 in 81 patients. In patients with a KIT exon 11 primary mutation, 52 patients had mutations in exon 17 or 18 only, 41 had mutations in exon 13 or 14 only, and 22 patients had mutations in both exon 13 or 14 and exon 17 or 18. […] Efficacy in patients with detectable ctDNA in KIT exon 11 and the ITT populations was consistent with the primary analysis based on tumor data used for randomization. The subgroup safety profiles were consistent with the primary analysis.
Cox proportional hazards analyses of PFS and OS were conducted to examine the interaction of treatment arm and mutational subgroup with or without adjustment for baseline characteristics in the study of Example 1.
With respect to PFS, a Cox model with the interaction effect was used and the Bonferroni adjustment was applied. […] The treatment effect was nominally significant in the KIT exon 11+13/14 and KIT exon 11+17/18 populations before and after performing the Bonferroni correction. […] The results were robust when accounting for multiple treatment comparisons across mutational subgroups.
With respect to OS, a Cox model with the interaction effect was used and the Bonferroni adjustment was applied. […] The treatment effect was nominally significant in the KIT exon 11+17/18 population before and after performing the Bonferroni correction, but not in the KIT exon 11+13/14 population. […] The results were robust when accounting for multiple treatment comparisons across mutational subgroups.

[3] = tested on: gastrointestinal stromal tumors (GIST); assay: Bridging study of second-line ripretinib versus sunitinib in GIST patients in China (Example 3); assay type: in vivo, human; settings: patients in China with KIT exon 11 and exon 17/18 mutations per tumor tissue ITT population; ripretinib 150 mg once daily or sunitinib 50 mg once daily; FIG. 16
Procedure: Results from a bridging study, with respect to the study of Example 1 above, of second-line administration of 150 mg once daily ripretinib, as compared to administration of 50 mg once daily sunitinib, in gastrointestinal stromal tumors (GIST) patients in China were obtained. In the study, 21 patients were determined to have mutations at KIT exon 11 and exon 17/18 per the tumor tissue ITT population. Progression-free survival (PFS) was determined with independent radiologic review using mRECIST. A Kaplan-Meier plot of PFS is provided as FIG. 16.

[4] = KIT exon 11 and 17 or 18 only (ctDNA), Data cut 1
[5] = KIT exon 11 and 17 or 18 only (ctDNA), Data cut 2
[6] = KIT exon 11 and exon 17/18, excluding exons 9, 13, and/or 14, extended interim analysis (Interim Analysis 2), FIG. 6
[7] = KIT exon 11 and exon 17/18, excluding exons 9, 13, and/or 14, interim analysis (Interim Analysis 1), FIG. 5
[8] = KIT exon 17/18, excluding exons 9, 13, and/or 14, extended interim analysis (Interim Analysis 2), FIG. 8
[9] = KIT exon 17/18, excluding exons 9, 13, and/or 14, interim analysis (Interim Analysis 1), FIG. 7
[10] = with adjustment for age, Any KIT exon 9 (n = 36)
[11] = with adjustment for age, KIT exon 11 + 13/14 + 17/18 only (n = 22)
[12] = with adjustment for age, KIT exon 11 + 13/14 only (n = 41)
[13] = with adjustment for age, KIT exon 11 + 17/18 only (n = 52)
[14] = with adjustment for age, KIT exon 11 only (n = 41)
[15] = with adjustment for age, Other KIT/PDGFRA (n = 29)
[16] = without adjustment for age, Any KIT exon 9 (n = 36)
[17] = without adjustment for age, KIT exon 11 + 13/14 + 17/18 only (n = 22)
[18] = without adjustment for age, KIT exon 11 + 13/14 only (n = 41)
[19] = without adjustment for age, KIT exon 11 + 17/18 only (n = 52)
[20] = without adjustment for age, KIT exon 11 only (n = 41)
[21] = without adjustment for age, Other KIT/PDGFRA (n = 29)

Cc1ccc(NC(=O)c2ccc(CN3CCN(C)CC3)cc2)cc1Nc1nccc(-c2cccnc2)n1 [imatinib]
2-year relapse-free survival ([1]; adjuvant setting): ~90%
median event-free survival ([1]; metastatic setting): under 2 years

CCn1c(=O)c(-c2cc(NC(=O)Nc3ccccc3)c(F)cc2Br)cc2cnc(NC)cc21 [ripretinib]
forest plot of PFS by KIT exon 11 mutational subgroups from baseline ctDNA ([2]; KIT exon 11 and 17 only, exon 11 and 18 only, any exons 11 and 17, any exon 11 and exon 17 or 18): favor ripretinib treatment
ORR [2, 4]: 44.4%
ORR Response Difference (95% CI), ripretinib versus sunitinib [2, 4]: 44.4% (23.0%, 62.7%)
PFS Hazard Ratio (95% CI), ripretinib versus sunitinib [2, 4]: 0.22 (0.11, 0.44)
ORR ([2]; KIT exon 11 and 17 or 18 only (ctDNA), Data cut 1, listed as Ripretinib): 44.4%
OS [2, 5]: Not Estimable
OS Hazard Ratio (95% CI), ripretinib versus sunitinib [2, 5]: 0.34 (0.15, 0.76)
forest plot of OS by KIT exon 11 mutational subgroups from baseline ctDNA ([2]; KIT exon 11 and 17 or KIT exon 11 and 18 mutations): favors ripretinib treatment
median OS [2, 6]: not estimable
median OS [2, 7]: not estimable
forest plot of ORR by KIT exon 11 mutational subgroups from baseline ctDNA ([2]; KIT exon 11 in combination with KIT exon 17 or 18 mutations): favors ripretinib treatment
PFS, ORR and OS versus sunitinib ([2]; KIT exon 11 only primary mutation and exon 17 or 18 secondary mutations only): superior
median OS [2, 8]: not evaluable
median OS [2, 9]: not evaluable
forest plot of OS by KIT mutational status from baseline ctDNA ([2]; KIT exon 17 and 18 mutations): favors ripretinib treatment
median PFS by IRR [2]: 13.8 months
forest plot of PFS by KIT mutational status from baseline ctDNA ([2]; mutations in KIT exons 17 and 18): favor ripretinib treatment
Median Progression-Free Survival (mPFS) ([2]; Data cut 1): 14.2 months
forest plot of ORR by KIT mutational status from baseline ctDNA ([2]; populations with KIT exons 11, 17 or 18): favors ripretinib treatment
OS HR, ripretinib versus sunitinib (Cox model) [2, 10]: 1.33
PFS HR, ripretinib versus sunitinib (Cox model) [2, 10]: 3.07
OS HR, ripretinib versus sunitinib (Cox model) [2, 11]: 2.09
PFS HR, ripretinib versus sunitinib (Cox model) [2, 11]: 0.96
OS HR, ripretinib versus sunitinib (Cox model) [2, 12]: 1.91
PFS HR, ripretinib versus sunitinib (Cox model) [2, 12]: 3.27
OS HR, ripretinib versus sunitinib (Cox model) [2, 13]: 0.34
PFS HR, ripretinib versus sunitinib (Cox model) [2, 13]: 0.21
OS HR, ripretinib versus sunitinib (Cox model) [2, 14]: 1.55
PFS HR, ripretinib versus sunitinib (Cox model) [2, 14]: 2.54
OS HR, ripretinib versus sunitinib (Cox model) [2, 15]: 0.63
PFS HR, ripretinib versus sunitinib (Cox model) [2, 15]: 0.97
OS HR, ripretinib versus sunitinib (Cox model) [2, 16]: 1.32
PFS HR, ripretinib versus sunitinib (Cox model) [2, 16]: 2.88
OS HR, ripretinib versus sunitinib (Cox model) [2, 17]: 2.15
PFS HR, ripretinib versus sunitinib (Cox model) [2, 17]: 0.98
OS HR, ripretinib versus sunitinib (Cox model) [2, 18]: 1.88
PFS HR, ripretinib versus sunitinib (Cox model) [2, 18]: 3.41
OS HR, ripretinib versus sunitinib (Cox model) [2, 19]: 0.32
PFS HR, ripretinib versus sunitinib (Cox model) [2, 19]: 0.22
OS HR, ripretinib versus sunitinib (Cox model) [2, 20]: 1.64
PFS HR, ripretinib versus sunitinib (Cox model) [2, 20]: 2.53
OS HR, ripretinib versus sunitinib (Cox model) [2, 21]: 0.78
PFS HR, ripretinib versus sunitinib (Cox model) [2, 21]: 1.02
median PFS (independent radiologic review using mRECIST) [3]: not reached

CCN(CC)CCNC(=O)c1c(C)[nH]c(/C=C2\C(=O)Nc3ccc(F)cc32)c1C [sunitinib, reference compound]
forest plot of ORR by KIT mutational status from baseline ctDNA ([2]; KIT exon 9 mutations): favors sunitinib treatment
forest plot of OS by KIT exon 11 mutational subgroups from baseline ctDNA ([2]; KIT exon 11 and 13 or KIT exon 11 and 14 mutations): favors sunitinib treatment
ORR [2, 4]: 0%
ORR ([2]; KIT exon 11 and 17 or 18 only (ctDNA), Data cut 1, listed as Sunitinib): 0%
OS [2, 5]: 17.5 months
median OS [2, 6]: 17.5 months
median OS [2, 7]: 16.9 months
forest plot of ORR by KIT exon 11 mutational subgroups from baseline ctDNA ([2]; KIT exon 11 in combination with KIT exon 13 only): favors sunitinib treatment
forest plot of OS by KIT mutational status from baseline ctDNA ([2]; KIT exon 13 and 14 mutations): favors sunitinib treatment
median OS [2, 8]: 17.5 months
median OS [2, 9]: 17.0 months
median PFS by IRR [2]: 2.8 months
forest plot of PFS by KIT exon 11 mutational subgroups from baseline ctDNA ([2]; exon 11 mutations in combination with exon 13 or exon 14 mutations): favor sunitinib
forest plot of PFS by KIT mutational status from baseline ctDNA ([2]; mutations in KIT exons 9, 13, and 14): favor sunitinib
Median Progression-Free Survival (mPFS) ([2]; Data cut 1): 1.5 months
median PFS (independent radiologic review using mRECIST) [3]: 6.7 months
